Among the data in paper PMC12040169 (PLOS Biology, 2025) are viability values, retold here.

The series in a line: in vitro. The note with it: human, hela cells, % viability.
As usually defined, the viability is a read-out of living cells in per cent, often relative to untreated cells. `Cc1ccc2c(c1)c(-c1ccccc1)c(-c1ccccc1)n2CC(O)Cn1cnc(-c2ccccc2)c1-c1ccccc1` (stereo not drawn) [CBK262531]: the viability at 28.5 h, 10 µM was determined as 72.7%.

Regarding `CC1(C)Cc2ccccc2C(NC(Cc2ccccc2)C(=O)O)=N1` (stereo not drawn) [CBK262533], the viability at 28.5 h, 10 µM turned out to be 107%.

As for `O=C(Nc1cc(Oc2cccnc2)cc([N+](=O)[O-])c1)c1cc2nc(-c3ccco3)cc(C(F)(F)F)n2n1` [CBK262534], the viability at 28.5 h, 10 µM turned out to be 110%.

As for `O=C(O)CNC(=O)/C(=C/c1ccc(Br)cc1)NC(=O)c1ccc(Br)o1` [CBK262537], the viability at 28.5 h, 10 µM amounted to 80.1%.

Take `Cc1cc2nc3s/c(=C\c4ccc(-c5ccc(O)c(C(=O)O)c5)o4)c(=O)n3c2cc1C` [CBK262538]: the viability at 28.5 h, 10 µM was 100%.

As to `O=[N+]([O-])c1cc2c(cc1C1NN=C(c3ccccc3)S1)OCO2` (stereo not drawn) [CBK262540], the viability at 28.5 h, 10 µM worked out at 112%.

Consider `COc1nc(NCCN2CCOCC2)nc(Nc2ccc(Cl)cc2)n1` [CBK262541], for which the viability at 28.5 h, 10 µM turned out to be 102%.

In the case of `Cn1c(SCC(=O)c2ccc(O)c(O)c2)nnc1-c1ccccc1` [CBK262544], the viability at 28.5 h, 10 µM amounted to 81.5%.

For `N#C/C(=C\c1cn(Cc2ccc(Cl)cc2Cl)nc1-c1ccccc1)c1nc2ccccc2[nH]1` [CBK262545], the viability at 28.5 h, 10 µM amounted to 87.3%.

As for `O=C(CSc1nc2ccccc2s1)OCc1ccc([N+](=O)[O-])cc1` [CBK262547], the viability at 28.5 h, 10 µM came out at 91.1%.

Turning to `CCOC(=O)c1c(NC(=O)CN2CCOCC2)sc2c1CCC2` [CBK262548], the viability at 28.5 h, 10 µM turned out to be 102%.

As for `O=c1/c(=C/c2ccc3c(c2)OCO3)sc2nc3cc(Br)cnc3n12` [CBK262550], the viability at 28.5 h, 10 µM was found to be 106%.

For `COCc1cc(C)nc(NCCO)c1C#N` [CBK262556], the viability at 28.5 h, 10 µM came out at 96.6%.

Consider `O=C(CCCN1C(=O)c2cccc3cccc(c23)C1=O)Nc1cccnc1` [CBK262560], for which the viability at 28.5 h, 10 µM was 81.5%.

Take `CC1(C)Cc2ccccc2C(NCC(=O)O)=N1` [CBK262562]: the viability at 28.5 h, 10 µM worked out at 83%.

`CCCCSc1nnc2c(n1)OC(/C=C/c1ccc([N+](=O)[O-])o1)Nc1ccccc1-2` (stereo not drawn) [CBK262565]: the viability at 28.5 h, 10 µM is 101%.

`O=C(O)c1ccccc1-c1ccc(/C=C2\S/C(=N\c3ccccc3)N(c3ccccc3)C2=O)o1` [CBK262566]: the viability at 28.5 h, 10 µM was 101%.

For `O=C(Nc1cc(Oc2ccc(F)cc2)cc(Oc2cccnc2)c1)c1nn2c(C(F)(F)F)cc(-c3cccs3)nc2c1Cl` [CBK262568], the viability at 28.5 h, 10 µM stood at 93.1%.

For the molecule `OC(Cn1c(Cc2ccccc2)nc2ccccc21)Cn1c2ccccc2c2ccccc21` (stereo not drawn) [CBK262570], the viability at 28.5 h, 10 µM is 95.2%.

Consider `CN1CCN(c2nc3c(N)ncn(CC(O)CO)c-3n2)CC1` (stereo not drawn) [CBK262571], for which the viability at 28.5 h, 10 µM is 108%.

Take `Cc1ccccc1NC(=O)c1c(NC(=O)Cc2ccccc2)sc2c1CCCC2` [CBK262572]: the viability at 28.5 h, 10 µM was found to be 108%.

Consider `NNC(=O)/C(=C\c1cccc([N+](=O)[O-])c1)NC(=O)c1ccc(Br)o1` [CBK262573], for which the viability at 28.5 h, 10 µM stood at 107%.

Regarding `Nc1nonc1C(=O)NCCNc1ccc([N+](=O)[O-])cc1` [CBK262577], the viability at 28.5 h, 10 µM is 104%.

As for `O=C(O)CCn1c2ccccc2c2cc(I)ccc21` [CBK262578], the viability at 28.5 h, 10 µM came out at 97.5%.

In the case of `COc1cc([N+](=O)[O-])ccc1-c1ccc(/C=c2\sc3nc4cc(Br)cnc4n3c2=O)o1` [CBK262579], the viability at 28.5 h, 10 µM was found to be 103%.

Consider `O=C(NCC1c2ccccc2CCN1C(=O)CN1C(=O)c2ccccc2C1=O)C1CCCCC1` (stereo not drawn) [CBK262582], for which the viability at 28.5 h, 10 µM turned out to be 90.6%.

Take `CCOC(=O)c1c(NC(=O)Cn2cnc([N+](=O)[O-])n2)sc2c1CCCC2` [CBK262583]: the viability at 28.5 h, 10 µM came out at 88.4%.

For the molecule `O=C(Nc1cc(Oc2cncc(Cl)c2)cc([N+](=O)[O-])c1)c1nn2c(C(F)(F)F)cc(-c3cccs3)nc2c1Cl` [CBK262585], the viability at 28.5 h, 10 µM came to 94.9%.

In the case of `CN1CCc2c(sc3nc(SCC(=O)c4ccccc4)n(-c4ccccc4)c(=O)c23)C1` [CBK262586], the viability at 28.5 h, 10 µM stood at 85.8%.

As for `CSc1nc(N/N=C/c2ccc(Cl)cc2)c2c3c(sc2n1)CN(C)CC3` [CBK262588], the viability at 28.5 h, 10 µM is 107%.

With `O=c1c2c(nc(NCCO)n1-c1ccccc1)-c1ccccc1CC21CCCCC1` [CBK262589], the viability at 28.5 h, 10 µM came to 96.4%.

`O=C(Cc1ccc(-c2ccccc2)cc1)NCc1cccnc1` [CBK262591]: the viability at 28.5 h, 10 µM was found to be 86.4%.

As for `COc1cccc(OCC(=O)O/N=C(\N)c2ccncc2)c1` [CBK262592], the viability at 28.5 h, 10 µM stood at 91.6%.

On to `c1ccc2[nH]c(SCCN3CCOCC3)nc2c1` [CBK262593], for which the viability at 28.5 h, 10 µM worked out at 89%.

As for `CCN1CCCC1CNC(=O)c1cc([N+](=O)[O-])c(N(C)C)cc1OC` (stereo not drawn) [CBK262595], the viability at 28.5 h, 10 µM came out at 95.8%.

Take `CN1C2C=C(N(CCc3ccccc3)C(=O)c3ccc(-c4ccccc4)cc3)CC1CC2` (stereo not drawn) [CBK262596C]: the viability at 28.5 h, 10 µM was determined as 104%.

On to `CN1C2C=C(N(CCc3ccccc3)C(=O)c3ccc(Cl)cc3)CC1CC2` (stereo not drawn) [CBK262604C], for which the viability at 28.5 h, 10 µM amounted to 94.7%.

Turning to `O=C(Nc1ccc(C(=O)Nc2cccc(-c3nc4ccccc4o3)c2)cc1)c1ccc([N+](=O)[O-])cc1` [CBK262606], the viability at 28.5 h, 10 µM is 96.6%.

In the case of `COc1cc(C(=O)N/C(=C\c2ccc(O)cc2)C(=O)O)cc(OC)c1OC` [CBK262607], the viability at 28.5 h, 10 µM worked out at 86.2%.

Take `COc1ccc(OCC(=O)Nc2cc3oc4ccccc4c3cc2OC)cc1` [CBK262608]: the viability at 28.5 h, 10 µM was 88.5%.

As to `O=C(O)CCC(=O)Nc1ccc(Br)cc1C(=O)c1ccccc1` [CBK262610], the viability at 28.5 h, 10 µM worked out at 114%.

Consider `Cc1ccc(NC(=O)CCC(=O)O)c(C(=O)c2ccccc2)c1` [CBK262611], for which the viability at 28.5 h, 10 µM was 108%.

In the case of `Cc1cc(C)cc(C(=O)N(CCc2ccccc2)C2CC3CCC(C2)N3C)c1` (stereo not drawn) [CBK262612C], the viability at 28.5 h, 10 µM is 83.7%.

With `O=C1c2cc(-c3nc(-c4ccccc4)[nH]c3-c3ccccc3)ccc2-c2ccc([N+](=O)[O-])cc21` [CBK262613], the viability at 28.5 h, 10 µM was determined as 85%.

As to `CC(C)N1CCC(=NNC(=O)COc2ccc(Cl)cc2Cl)CC1` [CBK262614], the viability at 28.5 h, 10 µM amounted to 83.2%.

For `Clc1ccc(-c2nc(-c3ccncc3)no2)c(Cl)c1` [CBK262615], the viability at 28.5 h, 10 µM was found to be 83.6%.

As for `COc1ccc(C(=O)NNC(=O)c2cc(OC)cc(OC)c2)cc1` [CBK262616], the viability at 28.5 h, 10 µM is 96%.

Take `CC(=O)Nc1ccc(-c2nc(-c3ccc(-c4ccccc4)cc3)c(-c3ccc(-c4ccccc4)cc3)[nH]2)cc1` [CBK262620]: the viability at 28.5 h, 10 µM was 87.3%.

Regarding `CCN1CCCC1CNC(=O)c1cccc(Cl)c1` (stereo not drawn) [CBK262621], the viability at 28.5 h, 10 µM was 84.3%.

For the molecule `COC(=O)c1sc(NC(=O)C2CCCO2)c(C(=O)OC)c1C` (stereo not drawn) [CBK262622], the viability at 28.5 h, 10 µM was 88%.

For `O=C(NNC(=O)C(O)c1ccccc1)NC1CCCCC1` (stereo not drawn) [CBK262625], the viability at 28.5 h, 10 µM stood at 106%.

Turning to `CCOC(=O)c1c(NC(=O)c2cc(-c3ccc(C)c(C)c3)nc3ccccc23)sc2c1CCC(C)C2` (stereo not drawn) [CBK262627], the viability at 28.5 h, 10 µM came to 96.4%.

Turning to `Cc1cccc(-c2cc(C(=O)Nc3sc4c(c3C#N)CCCCCC4)c3ccccc3n2)c1` [CBK262632], the viability at 28.5 h, 10 µM amounted to 103%.

Turning to `Cc1c(-c2ccc(Cl)cc2Cl)nc2ccccc2c1C(=O)NCCC(c1ccccc1)c1ccccc1` [CBK262634], the viability at 28.5 h, 10 µM amounted to 99.7%.

For the molecule `Cc1ccc(-c2cc(C(=O)Nc3ccc(S(=O)(=O)Nc4nccs4)cc3)c3ccccc3n2)c(C)c1` [CBK262638], the viability at 28.5 h, 10 µM was 85.3%.

For the molecule `NC(=O)c1ccc(NC(=O)c2sc3ccccc3c2Cl)cc1` [CBK262643], the viability at 28.5 h, 10 µM was 90.8%.

For the molecule `O=C(NCCCn1ccnc1)c1cc(-c2ccc(Br)cc2)nc2ccccc12` [CBK262645], the viability at 28.5 h, 10 µM turned out to be 84.8%.

Regarding `CCC1CCc2c(sc(NC(=O)c3cc(-c4ccc(Cl)s4)nc4ccccc34)c2C(N)=O)C1` (stereo not drawn) [CBK262646], the viability at 28.5 h, 10 µM was determined as 88.9%.

In the case of `CCCOC(=O)c1c(NC(=O)c2cc(-c3ccccc3)nc3ccccc23)sc2c1CCC(C)C2` (stereo not drawn) [CBK262647], the viability at 28.5 h, 10 µM came out at 93.9%.

As to `O=C(NCCN1CCOCC1)c1cc(-c2ccc(Cl)cc2)nc2ccccc12` [CBK262650], the viability at 28.5 h, 10 µM stood at 96.6%.

For `COc1ccc(CC(=O)NNC(=O)Nc2ccc(Cl)c(Cl)c2)cc1` [CBK262652], the viability at 28.5 h, 10 µM worked out at 92.6%.

On to `COC(=O)c1c(NC(=O)C2C3C=CC(C3)C2C(=O)O)sc2c1CCCCC2` (stereo not drawn) [CBK262653], for which the viability at 28.5 h, 10 µM was 80.2%.

With `COC(=O)c1c(NC(=O)c2cnccn2)sc2c1CCC(C)C2` (stereo not drawn) [CBK262654], the viability at 28.5 h, 10 µM stood at 96.2%.

Regarding `COC(=O)c1c(NC(=O)C2CC=CCC2C(=O)O)sc2c1CCC(C)C2` (stereo not drawn) [CBK262655], the viability at 28.5 h, 10 µM is 101%.

As to `O=C(NCCCn1ccnc1)c1cc(-c2ccccc2Cl)nc2ccccc12` [CBK262656], the viability at 28.5 h, 10 µM stood at 95.2%.

For `CCOC(=O)c1sc(NC(=O)Nc2cccc(Cl)c2)c(C(N)=O)c1C` [CBK262658], the viability at 28.5 h, 10 µM stood at 107%.

For the molecule `O=C(O)C1C2C=CC(C2)C1C(=O)N1CCN(C(c2ccccc2)c2ccccc2)CC1` (stereo not drawn) [CBK262659], the viability at 28.5 h, 10 µM came out at 95.2%.

`CN1CCC(=NNC(=O)c2cc(O)c(O)c(O)c2)CC1` [CBK262660]: the viability at 28.5 h, 10 µM was determined as 78.6%.

`CC(=O)NC(N(C)S(=O)(=O)c1ccc(C)cc1)C(Cl)(Cl)Cl` (stereo not drawn) [CBK262662]: the viability at 28.5 h, 10 µM was found to be 93.8%.

Turning to `CC12CN3CC(C)(CN(C1)C3c1cc(Br)ccc1O)C2O` (stereo not drawn) [CBK262664], the viability at 28.5 h, 10 µM worked out at 112%.

For the molecule `CC12CN3CC(C)(CN(C1)C3c1ccc([N+](=O)[O-])cc1)C2` (stereo not drawn) [CBK262665], the viability at 28.5 h, 10 µM is 95.2%.

As to `CC(=O)Nc1ccc(-c2nc3c4ccccc4c4ccc(I)cc4c3[nH]2)cc1` [CBK262667], the viability at 28.5 h, 10 µM was 100%.

For the molecule `NNC(=O)c1cc(O)n[nH]1` [CBK262669], the viability at 28.5 h, 10 µM was determined as 106%.

Turning to `O=C(Nc1cccc(Br)c1)C1CN(S(=O)(=O)c2ccccc2)CCN1S(=O)(=O)c1ccccc1` (stereo not drawn) [CBK262671], the viability at 28.5 h, 10 µM was 79.7%.

Consider `O=C(Nc1ccc(I)cc1)c1ccc(CN2CCc3ccccc3C2)cc1` [CBK262672], for which the viability at 28.5 h, 10 µM was found to be 101%.
